Values after ≈ are worked out from the molar mass of the structure shown.

Assay type in all cases: functional, cell-based
In one test the test system is A549. As to the kind of experiment: Cytotoxicity against human A549 cells.
The next test relates to PC-3. As to the kind of experiment: Cytotoxicity against human PC3 cells.
In the next test the test system is MCF7. Kind of test: Cytotoxicity against human MCF7 cells.
The test system of a further test is LNCaP. As to the kind of experiment: Cytotoxicity against human LNCAP cells.
Test [1] in a line: Cytotoxicity against human LOX cells.
Another test concerns SW948. Kind of test: Cytotoxicity against human SW948 cells.
For another test, the system named is CX-1. Kind of test: Cytotoxicity against human CX-1 cells.
Another test has as its system HCT-15. As to the kind of experiment: Cytotoxicity against human HCT15 cells.
The nature of test [2]: Cytotoxicity against human CCL228 cells.
The subject of another test is SK-BR-3. As to the kind of experiment: Cytotoxicity against human SK-BR-3 cells.
Another test relates to Caco-2. Kind of test: Cytotoxicity against human Caco-2 cells.
Test [3] in a line: Cytotoxicity against human LS 174T cells. As to conditions: LS174T.
A short description of test [4]: Cytotoxicity against human A2780DDP cells.
The nature of test [5]: Cytotoxicity against human A2780S cells. As to conditions: A2780.
For the next test, the system named is T47D. Kind of test: Cytotoxicity against human T47D cells.
Another test deals with DU-145. As to the kind of experiment: Cytotoxicity against human DU145 cells.
Another test has as its system COLO 205. Kind of test: Cytotoxicity against human COLO205 cells.
Test [6] in a line: Cytotoxicity against human […] cells.
A further test deals with CCRF-CEM. Kind of test: Cytotoxicity against human CCRF-CEM cells.
In the next test the test system is LX-1. Kind of test: Cytotoxicity against human LX1 cells.
The nature of test [7]: Cytotoxicity against human NEC cells.
The next test has as its system SW-620. As to the kind of experiment: Cytotoxicity against human SW620 cells.

As usually defined, the IC50 is the concentration needed to halve the response being measured. `C=C(C=O)[C@@H]1C[C@@]2(C)C(=CC1=O)[C@H](OC(=O)/C=C/C=C/C(C)CC(C)CC)CC[C@@H]2C(=O)O` (relative stereo): the IC50 came out at 3.95 µg/mL (≈ 8.65 µM) with A549; 3.59 µg/mL (≈ 7.86 µM) in the test with PC-3; 2.83 µg/mL (≈ 6.2 µM) in the test on MCF7; 3.06 µg/mL (≈ 6.7 µM) in the test on LNCaP; 3.43 µg/mL (≈ 7.51 µM) in [1]; 3.09 µg/mL (≈ 6.77 µM) with SW948. In addition, the half-maximal inhibitory concentration (IC50) with CX-1 is 3.21 µg/mL (≈ 7.03 µM); in the test on HCT-15, 4.08 µg/mL (≈ 8.94 µM); in test [2], 3.04 µg/mL (≈ 6.66 µM); in the test with SK-BR-3 it was 3.53 µg/mL (≈ 7.73 µM); in the test with Caco-2, 3.25 µg/mL (≈ 7.12 µM); in test [3], 3.29 µg/mL (≈ 7.21 µM). Further, the IC50 in test [4] is 3.01 µg/mL (≈ 6.59 µM); in test [5], 3.09 µg/mL (≈ 6.77 µM); in the test on T47D, 3.5 µg/mL (≈ 7.67 µM); in the test on DU-145, 3.06 µg/mL (≈ 6.7 µM); in the test on COLO 205 it was 3.41 µg/mL (≈ 7.47 µM); in test [6], 2.47 µg/mL (≈ 5.41 µM). Moreover, the IC50 came to 0.88 µg/mL (≈ 1.93 µM) in the test with CCRF-CEM, 4.16 µg/mL (≈ 9.11 µM) in the test with LX-1, 3.38 µg/mL (≈ 7.4 µM) in test [7] and 3.6 µg/mL (≈ 7.88 µM) in the test on SW-620.

These data come from ChEMBL document CHEMBL1148901, “07H239-A, a new cytotoxic eremophilane sesquiterpene from the marine-derived Xylariaceous fungus LL-07H239” (J Nat Prod, 2004).
